Test results published in patent US9796706B2, “Inhibitors of Jun N-terminal kinase” (IMAGO PHARMACEUTICALS, INC., priority 2009, dated 2017).

Experiments:
Assay type in all cases: biochemical
Conditions in all cases: procedures of Example 14 (TR-FRET)
JNK3 = JNK3 (Homo sapiens (Human), UniProt P53779); assay: JNK3 TR-FRET kinase assay (Example 14)
Protocol: (§1) 14.3. Active JNK 1, 2 and 3 TR-FRET Assay
(§2) (1) Assay buffer #1 with 0.0025% Tween and 1 mM DTT was prepared using JNK buffer stock solution.
(§3) (2) Assay buffer #2 with 0.025% BSA was prepared using the assay buffer #1.
(§4) (3) Test compound solution preparation: 5× compound solution was prepared using assay buffer #1 with 5% DMSO. The compound solution (10 μl/well) was added to a 384-well plate (Corning, Cat No. 3654).
(§5) (4) aJNK1, 2 or 3 preparation: aJNK stock (100 μg/ml) at −80° C. was thawed on ice and an aJNK (1.6 ng/ml) solution was prepared using assay buffer #2. The aJNK solution (20 μl/well) was added to the plate and the plate was shaken. The enzyme was incubated with the compound at RT for 10 min. (5) ATP/substrate solution preparation: ATP and substrate stocks were thawed on ice. 2.5×ATP/substrate (e.g., 25 μM or 2.5 mM ATP/50 nM EPIW-1) was prepared using assay buffer #1. The ATP/substrate (20 μl/well) was added to the plate and the plate was shaken. The plate was incubated at RT for 15 min. Note: In an exemplary assay, the final ATP concentration was about 1 mM. (6) EDTA preparation: 30 mM EDTA was prepared using 0.5M EDTA stock and assay buffer #1. The EDTA (10 μl/well) was added to the plate to quench the enzyme reaction and the plate was shaken well. (7) Detection reagent preparation: Eu-63 and SA-XL stocks were thawed on ice. 4× Eu-63/SA-XL (2 nM Eu-63/9.4 nM SA-XL) was prepared using JNK detection buffer. The Eu-63/SA-XL solution (20 μl/well) was added to the plate and the plate was shaken. The plate was incubated at RT for 1 hr before reading the plate on LJL using ratiometric method named HTRF.
(§6) 14.4. Coupled JNK 1, 2 and 3 TR-FRET Assay
(§7) (1) Assay buffer with 0.0025% Tween, 0.01% BSA, and 1 mM DTT was prepared using JNK buffer stock solution.
(§8) (2) Test compound solution preparation: 5× compound solution, including EDTA background, was prepared using assay buffer with 5% DMSO. The compound solution (10 μl/well) was added to a 384-well plate (Corning, Cat No. 3654).
(§9) (3) uJNK1,2, or 3 activation reaction preparation: uJNK activation solution was prepared using assay buffer (1.6 ng/ml MKK4, 1.6 ng/ml MKK7, 16 ng/ml uJNK, and 20 uM ATP final). The uJNK activation solution (35 μl/well) was added to the plate, the plate was shaken, and the reaction mixture was incubated with compound at 30° C. for 60 min. (4) c-Jun substrate solution preparation: 50 nM EPIW-1, c-Jun peptide, was prepared using assay buffer (15 nM final). The EPIW-1 solution (15 μl/well) was added to the plate, the plate was shaken and incubated at 30° C. for 60 min. (5) EDTA preparation: 30 mM EDTA was prepared using 0.5M EDTA stock and assay buffer. The EDTA (10 μl/well) was added to the plate to quench the enzyme reaction and the plate was shaken well. (6) Detection reagent preparation: Eu-73 and SA-XL stocks were thawed on ice. 4× Eu-73/SA-XL (2 nM Eu-73/9.4 nM SA-XL) were prepared using JNK detection buffer. The Eu-73/SA-XL solution (20 μl/well) was added to the plate. The plate was shaken and incubated at RT for 1 hr before reading the plate on LJL using ratiometric method named HTRF.

JNK2 = JNK2 (Homo sapiens (Human), UniProt P45984); assay: JNK2 TR-FRET kinase assay (Example 14)
Protocol: as §1, §2, §3, §4, §5, §6, §7, §8, §9

JNK1 = JNK1 (Homo sapiens (Human), UniProt P45983); assay: JNK1 TR-FRET kinase assay (Example 14)
Protocol: as §1, §2, §3, §4, §5, §6, §7, §8, §9

Sequence of JNK1 (P45983 other isoform, or with tags, fused parts or gaps isoform P45983-2, species assumed): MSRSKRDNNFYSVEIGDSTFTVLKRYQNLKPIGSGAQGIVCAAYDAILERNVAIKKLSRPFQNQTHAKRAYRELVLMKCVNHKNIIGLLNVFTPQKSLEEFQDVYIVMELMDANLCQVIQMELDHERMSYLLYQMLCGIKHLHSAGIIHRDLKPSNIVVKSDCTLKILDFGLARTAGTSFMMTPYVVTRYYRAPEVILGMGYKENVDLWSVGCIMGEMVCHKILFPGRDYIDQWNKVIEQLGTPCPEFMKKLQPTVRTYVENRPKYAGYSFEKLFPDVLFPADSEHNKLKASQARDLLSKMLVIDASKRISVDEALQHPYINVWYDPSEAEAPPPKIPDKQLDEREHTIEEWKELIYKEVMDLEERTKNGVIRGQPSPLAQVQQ
Sequence of JNK3 (P53779 whole entry, species assumed): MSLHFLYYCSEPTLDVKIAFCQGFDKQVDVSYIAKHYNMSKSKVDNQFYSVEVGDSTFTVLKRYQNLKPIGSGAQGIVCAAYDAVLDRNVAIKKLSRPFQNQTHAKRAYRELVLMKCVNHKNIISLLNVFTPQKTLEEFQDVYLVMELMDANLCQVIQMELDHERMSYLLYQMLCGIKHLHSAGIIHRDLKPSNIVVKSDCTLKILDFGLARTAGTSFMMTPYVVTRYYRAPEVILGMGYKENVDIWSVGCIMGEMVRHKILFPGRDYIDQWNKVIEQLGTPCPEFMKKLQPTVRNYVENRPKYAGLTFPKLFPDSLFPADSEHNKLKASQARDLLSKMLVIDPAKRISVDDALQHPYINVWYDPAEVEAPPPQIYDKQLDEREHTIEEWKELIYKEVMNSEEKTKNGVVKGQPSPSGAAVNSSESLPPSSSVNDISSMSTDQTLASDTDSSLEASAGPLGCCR
Sequence of JNK2 (P45984 whole entry, species assumed): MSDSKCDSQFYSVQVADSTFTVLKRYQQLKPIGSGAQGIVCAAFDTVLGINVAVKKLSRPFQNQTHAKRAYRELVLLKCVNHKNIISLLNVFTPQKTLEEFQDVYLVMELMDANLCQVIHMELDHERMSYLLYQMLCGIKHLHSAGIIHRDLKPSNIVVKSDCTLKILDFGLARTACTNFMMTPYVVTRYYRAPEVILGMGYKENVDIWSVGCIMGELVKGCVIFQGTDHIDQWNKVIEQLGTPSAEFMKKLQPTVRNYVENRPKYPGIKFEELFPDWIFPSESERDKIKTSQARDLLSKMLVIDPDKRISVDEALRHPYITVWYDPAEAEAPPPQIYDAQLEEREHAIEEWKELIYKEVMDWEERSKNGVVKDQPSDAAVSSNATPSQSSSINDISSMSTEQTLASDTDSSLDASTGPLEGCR

Row | SMILES | IC50 (JNK3) | IC50 (JNK2) | IC50 (JNK1)
1 | Cc1n[nH]c(-c2sccc2NC(=O)Cc2ccc3c(c2)OCCO3)n1 [2-(2,3-dihydrobenzo[b][1,4]dioxin-6-yl)-N-(2-(3-methyl-1H-1,2,4-triazol-5-yl)thiophen-3-yl)acetamide] | 0.1 to 10 µM | 0.1 to 10 µM | 0.1 to 10 µM
2 | O=C(Cn1c(=O)ccc2cnccc21)Nc1ccsc1-c1cscn1 [2-(2-oxo-1,6-naphthyridin-1(2H)-yl)-N-(2-(thiazol-4-yl)thiophen-3-yl)acetamide] | 0.1 to 10 µM | 0.1 to 10 µM | < 0.1 µM
3 | O=C(CN1C(=O)CCc2cnccc21)Nc1ccsc1-c1cscn1 [2-(2-oxo-3,4-dihydro-1,6-naphthyridin-1(2H)-yl)-N-(2-(thiazol-4-yl)thiophen-3-yl)acetamide] | 0.1 to 10 µM | 0.1 to 10 µM | 0.1 to 10 µM
4 | O=C(Cc1cccc2ccccc12)Nc1ccsc1-c1ccccn1 [2-(2-pyridyl)-3-(1-naphthylacetylamino)thiophene] | 0.1 to 10 µM | – | –
5 | COc1ccc(CC(=O)Nc2ccsc2-c2nc(C)n[nH]2)cc1 [2-(4-methoxyphenyl)-N-(2-(3-methyl-1H-1,2,4-triazol-5-yl)thiophen-3-yl)acetamide] | – | 0.1 to 10 µM | –
6 | COc1ccc(CC(=O)Nc2ccsc2-c2ncco2)cc1 [2-(4-methoxyphenyl)-N-(2-(oxazol-2-yl)thiophen-3-yl)acetamide] | – | > 10 µM | –
7 | Cn1ncnc1-c1ncsc1NC(=O)Cc1cccc2cnccc12 [2-(isoquinolin-5-yl)-N-(4-(1-methyl-1H-1,2,4-triazol-5-yl)thiazol-5-yl)acetamide] | – | 0.1 to 10 µM | –
8 | O=C(Cc1ccc2c(c1)OCCO2)Nc1ccsc1-c1ncn[nH]1 [N-(2-(1H-1,2,4-triazol-5-yl)thiophen-3-yl)-2-(2,3-dihydrobenzo[b][1,4]dioxin-6-yl)acetamide] | – | 0.1 to 10 µM | –
9 | O=C(Cc1cccc2ccccc12)Nc1ccsc1-c1cc[nH]n1 [N-(2-(1H-pyrazol-3-yl)thiophen-3-yl)-2-(naphthalen-1-yl)acetamide] | – | > 50 µM | –
10 | COc1ccc(CC(=O)Nc2ccsc2-c2nc(N)n[nH]2)cc1 [N-(2-(3-amino-1H-1,2,4-triazol-5-yl)thiophen-3-yl)-2-(4-methoxyphenyl)acetamide] | – | 0.1 to 10 µM | –
11 | Cc1noc(-c2sccc2NC(=O)Cc2cccc3ccccc23)n1 [N-(2-(3-methyl-1,2,4-oxadiazol-5-yl)thiophen-3-yl)-2-(naphthalen-1-yl)acetamide] | – | > 50 µM | –
12 | Cc1n[nH]c(-c2sccc2NC(=O)Cc2ccc(N3CCCC3=O)cc2)n1 [N-(2-(3-methyl-1H-1,2,4-triazol-5-yl)thiophen-3-yl)-2-(4-(2-oxopyrrolidin-1-yl)phenyl)acetamide] | – | 0.1 to 10 µM | –
13 | Cc1cc(-c2sccc2NC(=O)Cc2cccc3ccccc23)n[nH]1 [N-(2-(5-methyl-1H-pyrazol-3-yl)thiophen-3-yl)-2-(naphthalen-1-yl)acetamide] | – | > 50 µM | –
14 | COc1ccc(CC(=O)Nc2sccc2-c2nn[nH]n2)cc1 [N-(3-(2H-tetrazol-5-yl)thiophen-2-yl)-2-(4-methoxyphenyl)-acetamide] | – | > 50 µM | –
15 | O=C(Cc1cccc2cccnc12)Nc1scc(Br)c1-c1ncn[nH]1 [N-(4-bromo-3-(1H-1,2,4-triazol-5-yl)thiophen-2-yl)-2-(quinolin-8-yl)acetamide] | 0.1 to 10 µM | 0.1 to 10 µM | –
16 | Cc1csc(NC(=O)CN2C(=O)CCc3ccccc32)c1-c1ncn[nH]1 [N-(4-methyl-3-(1H-1,2,4-triazol-5-yl)thiophen-2-yl)-2-(2-oxo-3,4-dihydroquinolin-1(2H)-yl)acetamide] | < 0.1 µM | – | < 0.1 µM
17 | Cc1csc(NC(=O)Cc2cccc3ncccc23)c1-c1ncn[nH]1 [N-(4-methyl-3-(1H-1,2,4-triazol-5-yl)thiophen-2-yl)-2-(quinolin-5-yl)acetamide] | – | 0.1 to 10 µM | –
18 | Cc1nnc(-c2c(C)csc2NC(=O)Cc2ccc(-c3ccncc3)cc2)[nH]1 [N-(4-methyl-3-(5-methyl-4H-1,2,4-triazol-3-yl)thiophen-2-yl)-2-(4-(pyridin-4-yl)phenyl)acetamide] | 0.1 to 10 µM | – | –
